Data taken from the supplement of paper PMC10307832.

Legend:
Experiment in all cases: relative viability (nuclei count vs DMSO), 5 days (fraction); higher = more cells survive
NCI-H661 = tested on: NCI-H661
In short: (§1)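 Relative viability was taken as the ratio of nuclei in treated wells to nuclei in vehicle wells. Lung cancer cell lines in 1536-well plates received compounds by pin tool one day after seeding, either one drug alone or a fixed anchor-drug dose plus five library-drug doses (not always all listed) in √10 steps. Nuclei were counted on 4× images after 5 days of treatment, and values are medians of duplicate plates.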

NCI-H1355 = tested on: NCI-H1355
In short: as §1

NCI-H460 = tested on: NCI-H460
In short: as §1

PC-14 = tested on: PC-14
In short: as §1

RERF-LC-KJ = tested on: RERF-LC-KJ
In short: as §1

NCI-H596 = tested on: NCI-H596
In short: as §1

NCI-H1755 = tested on: NCI-H1755
In short: as §1

LXF-289 = tested on: LXF-289
In short: as §1

NCI-H2170 = tested on: NCI-H2170
In short: as §1

NCI-H1651 = tested on: NCI-H1651
In short: as §1

NCI-H727 = tested on: NCI-H727
In short: as §1

## Clc1ccc(Nc2nnc(Cc3ccncc3)c3ccccc23)cc1 [Vatalanib] + CS(=O)(=O)N1CCN(Cc2cc3nc(-c4cccc5[nH]ncc45)nc(N4CCOCC4)c3s2)CC1 [Pictilisib] (partner 1 µM)
NCI-H661; first compound 0.04 µM
  relative viability: 0.345
NCI-H661; first compound 0.1265 µM
  relative viability: 0.378
NCI-H661; first compound 0.4 µM
  relative viability: 0.392
NCI-H661; first compound 1.265 µM
  relative viability: 0.365
NCI-H661; first compound 4 µM
  relative viability: 0.34
NCI-H1355; first compound 0.04 µM
  relative viability: 0.391
NCI-H1355; first compound 0.1265 µM
  relative viability: 0.441
NCI-H1355; first compound 0.4 µM
  relative viability: 0.53
NCI-H1355; first compound 1.265 µM
  relative viability: 0.394
NCI-H1355; first compound 4 µM
  relative viability: 0.457
NCI-H460; first compound 0.04 µM
  relative viability: 0.361
NCI-H460; first compound 0.1265 µM
  relative viability: 0.356
NCI-H460; first compound 0.4 µM
  relative viability: 0.378
NCI-H460; first compound 1.265 µM
  relative viability: 0.352
NCI-H460; first compound 4 µM
  relative viability: 0.312
PC-14; first compound 0.04 µM
  relative viability: 0.832
PC-14; first compound 0.1265 µM
  relative viability: 0.712
PC-14; first compound 0.4 µM
  relative viability: 0.693
PC-14; first compound 1.265 µM
  relative viability: 0.69
PC-14; first compound 4 µM
  relative viability: 0.679
RERF-LC-KJ; first compound 0.04 µM
  relative viability: 0.486
RERF-LC-KJ; first compound 0.1265 µM
  relative viability: 0.579
RERF-LC-KJ; first compound 0.4 µM
  relative viability: 0.745
RERF-LC-KJ; first compound 1.265 µM
  relative viability: 0.422
RERF-LC-KJ; first compound 4 µM
  relative viability: 0.481
NCI-H596; first compound 0.04 µM
  relative viability: 0.347
NCI-H596; first compound 0.1265 µM
  relative viability: 0.353
NCI-H596; first compound 0.4 µM
  relative viability: 0.392
NCI-H596; first compound 1.265 µM
  relative viability: 0.371
NCI-H596; first compound 4 µM
  relative viability: 0.393
NCI-H1755; first compound 0.04 µM
  relative viability: 0.405
NCI-H1755; first compound 0.1265 µM
  relative viability: 0.395
NCI-H1755; first compound 0.4 µM
  relative viability: 0.453
NCI-H1755; first compound 1.265 µM
  relative viability: 0.387
NCI-H1755; first compound 4 µM
  relative viability: 0.383
LXF-289; first compound 0.04 µM
  relative viability: 0.894
LXF-289; first compound 0.1265 µM
  relative viability: 0.737
LXF-289; first compound 0.4 µM
  relative viability: 0.748
LXF-289; first compound 1.265 µM
  relative viability: 0.702
LXF-289; first compound 4 µM
  relative viability: 0.747
NCI-H2170; first compound 0.04 µM
  relative viability: 0.319
NCI-H2170; first compound 0.1265 µM
  relative viability: 0.331
NCI-H2170; first compound 0.4 µM
  relative viability: 0.329
NCI-H2170; first compound 1.265 µM
  relative viability: 0.356
NCI-H2170; first compound 4 µM
  relative viability: 0.306
NCI-H1651; first compound 0.04 µM
  relative viability: 0.646
NCI-H1651; first compound 0.1265 µM
  relative viability: 0.276
NCI-H1651; first compound 0.4 µM
  relative viability: 0.642
NCI-H1651; first compound 1.265 µM
  relative viability: 0.511
NCI-H1651; first compound 4 µM
  relative viability: 0.594
NCI-H727; first compound 0.04 µM
  relative viability: 0.421
NCI-H727; first compound 0.1265 µM
  relative viability: 0.355
NCI-H727; first compound 0.4 µM
  relative viability: 0.359
NCI-H727; first compound 1.265 µM
  relative viability: 0.399
NCI-H727; first compound 4 µM
  relative viability: 0.433
